Laboratory results as given in publication PMC9481570, “A small molecule antagonist of SMN disrupts the interaction between SMN and RNAP II” (Nature Communications, 2022).

Target: T1, tandem Tudor domain (TTD) of UHRF1 (Homo sapiens, UniProt Q96T88)
T1 construct: UHRF1 (aa 126–285); His (N, cleaved yes); made in house; host or cells: E. coli BL21 (DE3) Codon plus RIL
Experiment: Fluorescein polarization-based peptide displacement screen
Assay type: binding
Settings: 2 mM compound, 8 μM UHRF1 TTD, 40 nM FITC-H3K9me3 peptide; hit = signal less than 50% of negative control
Procedure: A small molecule fragment library with 2040 compounds was screened against TTD of UHRF1 by fluorescein polarization-based peptide displacement assay according to previous reports. Briefly, the screening was performed in 10 μL at a protein concentration of 8 μM premixed with a 40 nM FITC-labeled H3K9me3 peptide (aa 1–25, Tufts University Core Services), and then adding a single concentration of 2 mM compound in a buffer of 20 mM Tris-HCl, pH 8.8, 50 mM NaCl, and 0.01% Triton X-100. The hits were further confirmed by dose response analysis with 1 mM as the highest concentration with 11 sequential 2-fold dilutions. All the assays were performed in duplicate in 384-well plates (Greiner, 784290), using the Synergy 4 microplate reader (BioTek), with an excitation wavelength of 485 nm and an emission wavelength of 528 nm. Data were corrected by background of the free labeled peptides and analyzed by GraphPad Prism version 5 software. […]
Tris -HCl, pH 8.8, 50 mM NaC l, and 0.01% Triton X - 100. […] All the assays were performed in duplicate in 384 -well plates (Greiner, 784290), usi ng the Synergy 4 microplate reader (BioTek), with an excitation wavelength of 485 nm and an emission wavelength of 528 nm. Data were corrected by background of the free labeled peptides and analyzed by GraphPad […]
Detection instrument and software Synergy 4 microplate reader (BioTek), GraphPad […]

T1 sequence (Q96T88 126-285): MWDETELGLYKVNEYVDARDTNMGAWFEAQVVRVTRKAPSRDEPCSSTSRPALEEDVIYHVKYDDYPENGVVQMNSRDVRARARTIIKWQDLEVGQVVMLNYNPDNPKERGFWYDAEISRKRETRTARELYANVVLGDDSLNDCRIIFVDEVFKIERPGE

Cn1c2c(c(=N)c3c1CCC3)CCC2 [Compound 1, 4-methyl-2,3,4,5,6,7-hexahydrodicyclopenta[b,e]pyridin-8(1H)-imine]
outcome of fragment screen: hit
